Measured values as given in patent US7435837B2, “Dihydrobenzofuranyl alkanamine derivatives and methods for using same” (Wyeth, priority 2003, dated 2008).
Like-named read-outs stand apart in the source and are kept apart here.

Experiments:
human 5-HT2C receptor = target: T1, human 5-HT2C receptor (Homo sapiens, UniProt P28335); assay: 5-HT2C receptor-stimulated calcium mobilization (FLIPR) in CHO cells; format: cell-based; settings: for Emax: CHO, percentage of the response observed with a maximally effective concentration of 5-HT, read-out: 5-HT2C Function Emax (%); for EC50: calcium mobilization, CHO cells stably expressing human 5-HT2C, read-out: 5-HT2C Function EC50;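 for all read-outs here: Fluo-3-AM fluorescence read on FLIPR every 1 s, agonist added after 10 baseline reads, response taken as peak minus lowest raw fluorescence count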
T1 sequence (P28335 33-458): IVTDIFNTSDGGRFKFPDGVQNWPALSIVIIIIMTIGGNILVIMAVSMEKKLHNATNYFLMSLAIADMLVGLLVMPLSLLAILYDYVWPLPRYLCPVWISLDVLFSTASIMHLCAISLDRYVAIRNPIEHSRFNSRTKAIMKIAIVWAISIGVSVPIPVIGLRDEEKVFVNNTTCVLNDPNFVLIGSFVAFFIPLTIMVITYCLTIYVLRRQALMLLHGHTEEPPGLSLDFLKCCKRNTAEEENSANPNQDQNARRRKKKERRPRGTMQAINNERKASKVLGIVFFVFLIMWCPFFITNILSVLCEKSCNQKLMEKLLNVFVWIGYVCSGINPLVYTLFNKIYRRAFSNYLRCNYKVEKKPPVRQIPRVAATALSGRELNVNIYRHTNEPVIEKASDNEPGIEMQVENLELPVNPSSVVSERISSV

[1] = target: T2, human 5-hydroxytryptamine-2C (h5-HT2C) receptor (Homo sapiens, UniProt P28335); assay: [125I]DOI binding to membranes of CHO cells expressing the human 5-HT2C receptor; settings: for Ki: [125I]DOI radioligand
T2 construct: expressed in transfected cells; host or cells: CHO (Chinese Hamster Ovary) cells; membranes
T2 sequence (P28335 33-458): T1 sequence (P28335 33-458)

[2] = CHO cell membranes, room temperature 60 min, read-out: 5-HT2C Affinity Ki

## NCC1Cc2c(cccc2-c2ccccc2)O1 (racemic) [Example 1, (±)-1-(4-phenyl-2,3-dihydro-1-benzofuran-2-yl)methanamine]
Human 5-HT2C receptor
  Emax: 90%
  EC50: 926 nM
[1]; [2]
  Ki: 43 nM

## Cc1ccccc1-c1cccc2c1CC(CN)O2 (racemic) [Example 4, (±)-1-[4-(2-methylphenyl)-2,3-dihydro-1-benzofuran-2-yl]methanamine]
Human 5-HT2C receptor
  Emax: 100%
  EC50: 562 nM
[1]; [2]
  Ki: 26 nM

## NCC1Cc2cccc(C3CCCC3)c2O1 (racemic) [Example 8, (±)-(7-cyclopentyl-2,3-dihydro-1-benzofuran-2-yl)methylamine]
Human 5-HT2C receptor
  Emax: 85%
  EC50: 188 nM
[1]; [2]
  Ki: 9 nM

## CC(C)c1cccc2c1OC(CN)C2 (racemic) [Example 18, (±)-(7-isopropyl-2,3-dihydro-1-benzofuran-2-yl)methylamine]
Human 5-HT2C receptor
  Emax: 100%
  EC50: 9.6 nM
[1]; [2]
  Ki: 5 nM

## Cc1c(Cl)cc(C(C)C)c2c1CC(CN)O2 (racemic) [Example 21, (±)-1-(5-chloro-7-isopropyl-4-methyl-2,3-dihydro-1-benzofuran-2-yl)methanamine]
Human 5-HT2C receptor
  Emax: 85%
  EC50: 86 nM
[1]; [2]
  Ki: 9 nM

## CC(C)(C)c1cc(Cl)cc2c1OC(CN)C2 (racemic) [Example 27, (±)-1-(7-tert-butyl-5-chloro-2,3-dihydro-1-benzofuran-2-yl)methanamine]
Human 5-HT2C receptor
  Emax: 80%
  EC50: 2020 nM
[1]; [2]
  Ki: 39 nM

## CNCC1Cc2cc(-c3ccc(OC)cc3)cc(F)c2O1 (racemic) [Example 542, (±)-{7-fluoro-5-[4-methoxyphenyl]-2,3-dihydro-1-benzofuran-2-yl}methyl)methylamine]
[1]; [2]
  Ki: 372 nM

## NCCC1Cc2ccc(Cl)c(-c3ccccc3Cl)c2O1 (racemic) [Example 552, (±)-{2-[6-chloro-7-(2-chlorophenyl)-2,3-dihydro-1 benzofuran-2-yl]ethyl}amine]
[1]; [2]
  Ki: 0.3 nM

## NCC1Cc2cccc(-c3ccccc3F)c2O1 (single isomer, unassigned; (+)) [Example 51, (+)-1-[7-(2-fluorophenyl)-2,3-dihydro-1-benzofuran-2-yl]methanamine]
[1]; [2]
  Ki: 1 nM

## NCC1Cc2cc(Cl)cc(-c3ccsc3)c2O1 (single isomer, unassigned; (+)) [Example 92, (+)-(5-chloro-7-thien-3-yl-2,3-dihydro-1-benzofuran-2-yl)methylamine]
[1]; [2]
  Ki: 62 nM

## COc1cc2c(c(C(C)(C)C)c1)OC(CN)C2 (single isomer, unassigned; (+)) [Example 116, (+)-1-(7-tert-butyl-5-methoxy-2,3-dihydro-1-benzofuran-2-yl)methanamine]
[1]; [2]
  Ki: 527 nM

## NCC1Cc2c(cccc2-c2ccccc2C(F)(F)F)O1 (single isomer, unassigned; (+)) [Example 124, (+)-1-{4-[2-(trifluoromethyl)phenyl]-2,3-dihydro-1-benzofuran-2-yl}methanamine]
[1]; [2]
  Ki: 53 nM

## NCC1Cc2cccc(-c3cccc(C(F)(F)F)c3)c2O1 (single isomer, unassigned; (+)) [Example 136, (+)-1-{7-[3-(trifluoromethyl)phenyl]-2,3-dihydro-1-benzofuran-2-yl}methanamine]
[1]; [2]
  Ki: 124 nM

## COc1ccc(-c2cccc3c2OC(CN)C3)c(OC)c1 (single isomer, unassigned; (+)) [Example 145, (+)-1-[7-(2,4-dimethoxyphenyl)-2,3-dihydro-1-benzofuran-2-yl]methanamine]
[1]; [2]
  Ki: 91 nM

## COc1cccc(-c2cccc3c2OC(CN)C3)c1OC (single isomer, unassigned; (+)) [Example 157]
[1]; [2]
  Ki: 58 nM

## Cc1cc2c(c(-c3c(Cl)cccc3Cl)c1)OC(CN)C2 (single isomer, unassigned; (+)) [Example 304, (+)-{[7-(2,6-dichlorophenyl)-5-methyl-2,3-dihydro-1-benzofuran-2-yl]methyl}amine]
[1]; [2]
  Ki: 1.7 nM

## Cc1ccccc1-c1c(F)ccc2c1OC(CN)C2 (single isomer, unassigned; (+)) [Example 396, (+)-{[6-fluoro-7-(2-methylphenyl)-2,3-dihydro-1-benzofuran-2-yl]methyl}amine]
[1]; [2]
  Ki: 0.3 nM

## NCC1Cc2c(cccc2-c2ccccc2)O1 (single isomer, unassigned; (-)) [Example 3, (−)-1-(4-phenyl-2,3-dihydro-1-benzofuran-2-yl)methanamine]
[1]; [2]
  Ki: 204 nM

## Cc1ccccc1-c1cccc2c1CC(CN)O2 (single isomer, unassigned; (-)) [Example 6, (−)-1-[4-(2-methylphenyl)-2,3-dihydro-1-benzofuran-2-yl]methanamine]
[1]; [2]
  Ki: 84 nM

## NCC1Cc2cccc(-c3ccsc3)c2O1 (single isomer, unassigned; (-)) [Example 46, (−)-1-(7-thien-3-yl-2,3-dihydro-1-benzofuran-2-yl)methanamine]
[1]; [2]
  Ki: 54 nM

## NCC1Cc2cccc(-c3ccccc3F)c2O1 (single isomer, unassigned; (-)) [Example 52, (−)-1-[7-(2-fluorophenyl)-2,3-dihydro-1-benzofuran-2-yl]methanamine]
[1]; [2]
  Ki: 13 nM

## CC(C)c1ccccc1-c1cccc2c1OC(CN)C2 (single isomer, unassigned; (-)) [Example 63, (−)-[7-(2-isopropylphenyl)-2,3-dihydro-1-benzofuran-2-yl]methylamine]
[1]; [2]
  Ki: 52 nM

## NCC1Cc2cccc(-c3ccc(F)cc3)c2O1 (single isomer, unassigned; (-)) [Example 75, (−)-1-[7-(4-fluorophenyl)-2,3-dihydro-1-benzofuran-2-yl]methanamine]
[1]; [2]
  Ki: 103 nM

## CNCC1Cc2cc(Cl)cc(-c3ccsc3)c2O1 (single isomer, unassigned; (-)) [Example 94, (−)-N-[(5-chloro-7-thien-3-yl-2,3-dihydro-1-benzofuran-2-yl)methyl]-N-methylamine]
[1]; [2]
  Ki: 176 nM

## COc1cc2c(c(C(C)(C)C)c1)OC(CN)C2 (single isomer, unassigned; (-)) [Example 115, (−)-1-(7-tert-butyl-5-methoxy-2,3-dihydro-1-benzofuran-2-yl)methanamine]
[1]; [2]
  Ki: 79 nM

## NCC1Cc2c(cccc2-c2ccccc2C(F)(F)F)O1 (single isomer, unassigned; (-)) [Example 123, (−)-1-{4-[2-(trifluoromethyl)phenyl]-2,3-dihydro-1-benzofuran-2-yl}methanamine]
[1]; [2]
  Ki: 207 nM

## Cc1cccc(C)c1-c1cccc2c1CC(CN)O2 (single isomer, unassigned; (-)) [Example 127, (−)-1-[4-(2,6-dimethylphenyl)-2,3-dihydro-1-benzofuran-2-yl]methanamine]
[1]; [2]
  Ki: 20 nM

## COc1cccc(-c2cccc3c2OC(CN)C3)c1 (single isomer, unassigned; (-)) [Example 134, (−)-1-[7-(3-methoxyphenyl)-2,3-dihydro-1-benzofuran-2-yl]methanamine]
[1]; [2]
  Ki: 483 nM

## NCC1Cc2cccc(-c3cccc(C(F)(F)F)c3)c2O1 (single isomer, unassigned; (-)) [Example 135, (−)-1-{7-[3-(trifluoromethyl)phenyl]-2,3-dihydro-1-benzofuran-2-yl}methanamine]
[1]; [2]
  Ki: 131 nM

## NCC1Cc2cccc(-c3cccnc3)c2O1 (single isomer, unassigned; (-)) [Example 172, (−)-{[7-pyridin-3-yl-2,3-dihydro-1-benzofuran-2-yl]methyl}amine]
[1]; [2]
  Ki: 185 nM

## Cc1cc2c(c(-c3c(Cl)cccc3Cl)c1)OC(CN)C2 (single isomer, unassigned; (-)) [Example 303, (−)-{[7-(2,6-dichlorophenyl)-5-methyl-2,3-dihydro-1-benzofuran-2-yl]methyl}amine]
[1]; [2]
  Ki: 0.2 nM

## Cc1ccccc1-c1c(F)ccc2c1OC(CN)C2 (single isomer, unassigned; (-)) [Example 397, (−)-{[6-fluoro-7-(2-methylphenyl)-2,3-dihydro-1-benzofuran-2-yl]methyl}amine]
[1]; [2]
  Ki: 1.6 nM

## CCNC[C@H]1Cc2cc(F)cc(-c3c(Cl)cccc3Cl)c2O1 [Example 546, (R)-[7-(2,6-dichloro-phenyl)-5-fluoro-2,3-dihydro-benzofuran-2-ylmethyl]ethylamine]
[1]; [2]
  Ki: 2.3 nM

## CN(C)C[C@H]1Cc2cc(F)cc(-c3c(Cl)cccc3Cl)c2O1 [Example 547, (R)-[7-(2,6-dichloro-phenyl)-5-Fluoro-2,3-dihydro-benzofuran-2-ylmethyl]dimethylamine]
[1]; [2]
  Ki: 1.8 nM

## Cc1ccc(Cl)cc1-c1cc(F)cc2c1O[C@@H](CN)C2 [Example 548, {[(2R)-7-(5-chloro-2-methylphenyl)-5-fluoro-2,3-dihydro-1-benzofuran-2-yl]methyl}amine]
[1]; [2]
  Ki: 2.3 nM

## Cc1cc(Cl)ccc1-c1cc(F)cc2c1O[C@@H](CN)C2 [Example 549, {[(2R)-7-(4-chloro-2-methylphenyl)-5-fluoro-2,3-dihydro-1-benzofuran-2-yl]methyl}amine]
[1]; [2]
  Ki: 3.1 nM

## CSc1ccc2c(c1)C(N1CCN(C)CC1)Cc1ccccc1S2 (centres unmarked) [Methiothepin, reference compound]
[1]; reference compounds, 95% confidence interval in parentheses, read-out: Ki
  Ki: 4.6 nM

## COc1cc(CC(C)N)c(OC)cc1I (centres unmarked) [[^125I] DOI, reference compound]
[1]; saturation binding with increasing concentrations of [125I] DOI, read-out: dissociation constant, KD
  Kd: 0.4 nM
